Results published in PubChem BioAssay AID328 (DTP/NCI, 2004).
Where “and” joins values, the source holds several entries; their conditions need not be identical. Equal values may be shown once. Toxic doses and inconclusive results are not listed.

System: BDF1 mice, P388 leukemia ip, median survival T/C
Test: NCI In Vivo Anticancer Drug Screen. Data for tumor model P388 Leukemia (intraperitoneal) in B6D2F1 (BDF1) mice
Conditions: endpoint: median survival time, higher = longer survival
In short: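 In tumour-bearing mice, survival after compound treatment is set against the vehicle group and given as a quotient.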

[1] = dose: 50.0 mg/kg/injection, schedule: Q01DX009 (ip), vehicle: saline with Tween-80
[2] = dose: 100.0 mg/kg/injection, schedule: Q01DX009 (ip), vehicle: saline with Tween-80
[3] = dose: 200.0 mg/kg/injection, schedule: Q04DX003 (ip), vehicle: saline with Tween-80
[4] = dose: 200.0 mg/kg/injection, schedule: Q01DX009 (ip), vehicle: saline with Tween-80
[5] = dose: 100.0 mg/kg/injection, schedule: Q04DX003 (ip), vehicle: saline with Tween-80

c1cc2c(c(CC3CO3)c1CC1CO1)OCCOCCOCCOCCO2 (stereo unspecified)
T/C (dose: 6.0 mg/kg/injection, schedule: Q01DX009 (ip), vehicle: saline + alcohol): 98 % of control and 105 % of control
T/C (dose: 12.0 mg/kg/injection, schedule: Q01DX009 (ip), vehicle: saline + alcohol): 108 % of control
T/C (dose: 24.0 mg/kg/injection, schedule: Q01DX009 (ip), vehicle: saline + alcohol): 113 % of control

CC1CN1C(=O)c1cc(C(=O)N2CC2C)cc(C(=O)N2CC2C)c1 (stereo unspecified)
T/C (dose: 8.25 mg/kg/injection, schedule: Q04DX003 (ip), vehicle: saline with Tween-80): 113 % of control
T/C (dose: 16.5 mg/kg/injection, schedule: Q04DX003 (ip), vehicle: saline with Tween-80): 117 % of control
T/C (dose: 37.5 mg/kg/injection, schedule: Q01DX009 (ip), vehicle: saline with Tween-80): 166 % of control
T/C [1]: 163 % of control
T/C (dose: 66.0 mg/kg/injection, schedule: Q04DX003 (ip), vehicle: saline): 86 % of control
T/C (dose: 150.0 mg/kg/injection, schedule: Q04DX003 (ip), vehicle: saline): 86 % of control

NS(=O)(=O)c1ccc(C(=O)NO)cc1
T/C (dose: 100.0 mg/kg/injection, schedule: Q01DX001 (ip), vehicle: saline): 100 % of control
T/C (dose: 200.0 mg/kg/injection, schedule: Q01DX001 (ip), vehicle: saline): 108 % of control
T/C (dose: 400.0 mg/kg/injection, schedule: Q01DX001 (ip), vehicle: saline): 108 % of control

Cc1ccc(C(SCC(N)C(=O)O)(c2ccccc2)c2ccc(C)cc2)cc1 (stereo unspecified)
T/C [1]: 268 % of control
T/C [2]: 172 % of control
T/C (dose: 132.0 mg/kg/injection, schedule: Q04DX003 (ip), vehicle: saline with Tween-80): 190 % of control
T/C [3]: 231 % of control

C[C@@H]1C[C@@]2(C)[C@@H](CC[C@@H]3[C@@H]2CC[C@]2(C)[C@@H](O)CC[C@@H]32)CC1=O
T/C (dose: 6.25 mg/kg/injection, schedule: Q01DX009 (ip), vehicle: Klucel (hydroxypropylcellulose) (HPC)): 109 % of control
T/C (dose: 12.5 mg/kg/injection, schedule: Q01DX009 (ip), vehicle: Klucel (hydroxypropylcellulose) (HPC)): 109 % of control
T/C (dose: 25.0 mg/kg/injection, schedule: Q01DX009 (ip), vehicle: Klucel (hydroxypropylcellulose) (HPC)): 109 % of control

C1CC[CH]([Sn]([CH]2CCCCC2)[CH]2CCCCC2)CC1
T/C (dose: 0.78 mg/kg/injection, schedule: Q01DX009 (ip), vehicle: saline with Tween-80): 98 % of control
T/C (dose: 1.56 mg/kg/injection, schedule: Q01DX009 (ip), vehicle: saline with Tween-80): 89 % of control

CN(C)P(N)(N)=O
T/C (dose: 100.0 mg/kg/injection, schedule: Q04DX003 (ip), vehicle: Klucel (hydroxypropylcellulose) (HPC)): 100 % of control
T/C (dose: 200.0 mg/kg/injection, schedule: Q04DX003 (ip), vehicle: Klucel (hydroxypropylcellulose) (HPC)): 100 % of control
T/C (dose: 400.0 mg/kg/injection, schedule: Q04DX003 (ip), vehicle: Klucel (hydroxypropylcellulose) (HPC)): 95 % of control

CN(C)c1ccc(/C=C2\C=Cc3ccccc32)cc1F
T/C (dose: 44.0 mg/kg/injection, schedule: Q04DX003 (ip), vehicle: saline sonified): 90 % of control
T/C (dose: 66.0 mg/kg/injection, schedule: Q04DX003 (ip), vehicle: saline sonified): 100 % of control
T/C (dose: 100.0 mg/kg/injection, schedule: Q01DX009 (ip), vehicle: saline sonified): 104 % of control
T/C (dose: 100.0 mg/kg/injection, schedule: Q04DX003 (ip), vehicle: saline sonified): 90 % of control
T/C (dose: 150.0 mg/kg/injection, schedule: Q04DX003 (ip), vehicle: saline sonified): 95 % of control
T/C (dose: 200.0 mg/kg/injection, schedule: Q01DX009 (ip), vehicle: saline sonified): 100 % of control
T/C (dose: 200.0 mg/kg/injection, schedule: Q04DX003 (ip), vehicle: saline sonified): 110 % of control
T/C (dose: 400.0 mg/kg/injection, schedule: Q01DX009 (ip), vehicle: saline sonified): 104 % of control
T/C (dose: 400.0 mg/kg/injection, schedule: Q04DX003 (ip), vehicle: saline sonified): 120 % of control

Cc1cccc(S(=O)(=O)F)c1
T/C (dose: 37.5 mg/kg/injection, schedule: Q01DX009 (ip), vehicle: Klucel (hydroxypropylcellulose) (HPC)): 104 % of control
T/C (dose: 75.0 mg/kg/injection, schedule: Q01DX009 (ip), vehicle: Klucel (hydroxypropylcellulose) (HPC)): 95 % of control
T/C (dose: 150.0 mg/kg/injection, schedule: Q01DX009 (ip), vehicle: Klucel (hydroxypropylcellulose) (HPC)): 90 % of control

N=Cc1c(O)n(-c2ccccc2)c(=O)n(-c2ccccc2)c1=O
T/C [2]: 95 % of control
T/C [4]: 95 % of control
T/C (dose: 400.0 mg/kg/injection, schedule: Q01DX009 (ip), vehicle: saline with Tween-80): 90 % of control

CCOC(=O)C(N)Cc1ccc(N(CCCl)CCCl)cc1 (stereo unspecified)
T/C (dose: 4.0 mg/kg/injection, schedule: Q04DX003 (ip), vehicle: saline with Tween-80): 240 % of control and 245 % of control
T/C (dose: 6.0 mg/kg/injection, schedule: Q04DX003 (ip), vehicle: saline with Tween-80): 272 % of control
T/C (dose: 9.0 mg/kg/injection, schedule: Q04DX003 (ip), vehicle: saline with Tween-80): 272 % of control and 95 % of control

N=C1C=C[C@]2(O)C[C@H](Cl)CN12
T/C (dose: 0.38 mg/kg/injection, schedule: Q01DX009 (ip), vehicle: saline): 104 % of control
T/C (dose: 0.75 mg/kg/injection, schedule: Q01DX009 (ip), vehicle: saline): 104 % of control
T/C (dose: 1.5 mg/kg/injection, schedule: Q01DX009 (ip), vehicle: saline): 114 % of control
T/C (dose: 3.0 mg/kg/injection, schedule: Q01DX009 (ip), vehicle: saline): 98 % of control
T/C (dose: 6.0 mg/kg/injection, schedule: Q01DX009 (ip), vehicle: saline): 117 % of control

CC(=O)c1c(C)oc(C)c1C(C)=O
T/C [5]: 103 % of control
T/C [3]: 111 % of control
T/C (dose: 400.0 mg/kg/injection, schedule: Q04DX003 (ip), vehicle: saline with Tween-80): 96 % of control

c1csc(C[N+]23CN4CN(CN(C4)C2)C3)c1
T/C (dose: 100.0 mg/kg/injection, schedule: Q01DX009 (ip), vehicle: saline): 116 % of control

C/C(Cc1ccccc1)=N\O
T/C [2]: 100 % of control
T/C [4]: 110 % of control

CC(C)=CCC1=C(O)c2ccccc2C(=O)C1=O
T/C (dose: 25.0 mg/kg/injection, schedule: Q#A X018 (oral), vehicle: other): 100 % of control
T/C (dose: 50.0 mg/kg/injection, schedule: Q01DX010 (ip), vehicle: other): 104 % of control
T/C (dose: 50.0 mg/kg/injection, schedule: Q01DX010 (ip), vehicle: water): 118 % of control
T/C (dose: 50.0 mg/kg/injection, schedule: Q#A X018 (oral), vehicle: other): 100 % of control
T/C (dose: 50.0 mg/kg/injection, schedule: Q#A X020 (ip), vehicle: other): 100 % of control
T/C (dose: 75.0 mg/kg/injection, schedule: Q01DX010 (ip), vehicle: water): 100 % of control and 109 % of control
T/C (dose: 100.0 mg/kg/injection, schedule: Q01DX010 (ip), vehicle: other): 118 % of control
T/C (dose: 100.0 mg/kg/injection, schedule: Q#A X018 (oral), vehicle: other): 100 % of control
T/C (dose: 100.0 mg/kg/injection, schedule: Q#A X020 (ip), vehicle: other): 90 % of control
T/C (dose: 125.0 mg/kg/injection, schedule: Q01DX010 (ip), vehicle: water): 95 % of control
T/C (dose: 150.0 mg/kg/injection, schedule: Q01DX010 (ip), vehicle: water): 90 % of control and 104 % of control
T/C (dose: 150.0 mg/kg/injection, schedule: Q#A X018 (ip), vehicle: other): 100 % of control
T/C (dose: 150.0 mg/kg/injection, schedule: Q#A X020 (ip), vehicle: other): 120 % of control

CCCCC(C)(O)CC (stereo unspecified)
T/C [1]: 109 % of control
T/C [2]: 118 % of control
T/C [5]: 104 % of control
T/C [4]: 100 % of control
T/C [3]: 104 % of control
